Experimental data from patent US10494378B2, “Fused ring pyrimidine compound, intermediate, and preparation method, composition and use thereof” (GUANGZHOU MAXINOVEL PHARMACEUTICALS CO., LTD., priority 2015, dated 2019).

Experiments:
Assay type in all cases: biochemical
[1] = biological target: T1, FLT3-ITD kinase (Homo sapiens, UniProt P36888); assay: IC50 evaluation assay of FLT3-ITD kinase inhibition (Caliper); settings: 28° C.; average of two tests; read-out: IC50 (nM) inhibiting FLT3-ITD kinase
T1 sequence (P36888 1-993): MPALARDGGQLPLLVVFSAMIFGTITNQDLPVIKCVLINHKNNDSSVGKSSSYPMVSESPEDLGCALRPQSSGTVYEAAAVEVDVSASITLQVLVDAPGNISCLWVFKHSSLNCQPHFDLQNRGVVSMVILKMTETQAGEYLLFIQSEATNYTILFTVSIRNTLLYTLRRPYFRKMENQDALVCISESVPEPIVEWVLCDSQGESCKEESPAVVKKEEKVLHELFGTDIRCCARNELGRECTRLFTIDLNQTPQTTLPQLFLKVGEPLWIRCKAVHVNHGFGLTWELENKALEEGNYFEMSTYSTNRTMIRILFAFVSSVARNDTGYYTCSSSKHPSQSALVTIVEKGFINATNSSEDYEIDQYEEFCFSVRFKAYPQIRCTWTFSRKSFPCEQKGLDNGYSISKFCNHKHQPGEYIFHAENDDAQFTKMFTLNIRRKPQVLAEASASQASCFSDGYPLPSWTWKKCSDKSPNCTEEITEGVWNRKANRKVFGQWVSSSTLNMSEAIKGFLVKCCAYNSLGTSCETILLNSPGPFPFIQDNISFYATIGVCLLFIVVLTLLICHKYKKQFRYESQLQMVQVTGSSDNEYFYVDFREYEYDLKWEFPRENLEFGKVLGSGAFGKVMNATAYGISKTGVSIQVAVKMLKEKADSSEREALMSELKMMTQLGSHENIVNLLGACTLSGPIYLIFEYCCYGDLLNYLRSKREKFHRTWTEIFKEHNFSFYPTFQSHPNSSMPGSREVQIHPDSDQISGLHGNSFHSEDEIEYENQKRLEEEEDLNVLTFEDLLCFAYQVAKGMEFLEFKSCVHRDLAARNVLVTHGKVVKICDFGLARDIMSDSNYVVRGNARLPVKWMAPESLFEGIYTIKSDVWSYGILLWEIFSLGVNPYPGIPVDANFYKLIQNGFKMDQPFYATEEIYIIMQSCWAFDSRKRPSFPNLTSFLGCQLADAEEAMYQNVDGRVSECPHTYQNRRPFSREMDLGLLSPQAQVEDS
Protocol: (§1) 1. The compound was dissolved in 100% DMSO, diluted into solutions with appropriate concentration gradients with water according to experimental requirement, and added to a 96-well plate.
2. FLT3 kinase (Carna, Cat. No. 08-154, Lot. No. 07CBS-2350), FLT3-ITD kinase (Invitrogen, Cat. No. PV6191, Lot. No. 1753453) and FLT3-D835Y kinase (Invitrogen, Cat. No. PR7450A, Lot. No. 1629729C) were diluted to the optimum concentration with the following buffer solution: 50 mM HEPES, pH 7.5, 0.0015% Brij-35, 10 mM MgCl2, 2 mM DTT. Transfer to the 96-well plate and incubate with the compound at 28° C. for a period of time.
(§2) 3. The buffer solution (100 mM HEPES, pH 7.5, 0.0015% Brij-35, 0.2% Coating Reagent and […]) was added to terminate the reaction.
(§3) 4. The conversion rate was read with Caliper Reader. The inhibition rate was calculated as the average of two tests.

[2] = biological target: T2, FGFR 3 (Homo sapiens, UniProt P22607); assay: IC50 evaluation assay of FGFR3 kinase inhibition (Caliper); settings: 28° C.; average of two tests; read-out: IC50 (nM) inhibiting FGFR 3 kinase
T2 construct: purchased Carna 08-135

[3] = biological target: T3, c-Src kinase (Homo sapiens, UniProt P12931); assay: IC50 evaluation assay of Src family kinase inhibition: c-Src; settings: 28° C.; average of two tests; read-out: IC50 (nM) inhibiting Src family kinase c-Src
T3 construct: purchased Carna 08-173
Protocol: as §1
(§4) 2. c-Src kinase (Carna, Cat. No. 08-173, Lot. No. 05CBS-1367), LYNαkinase (Carna, Cat. No. 08-171, Lot. No. 06CBS-3296D), FYN kinase (Carna, Cat. No. 08-068, Lot. No. 05CBS-1032), LCK kinase (Carna, Cat. No. 08-170, Lot. No. 07CBS-2482), HCK kinase (BPS, Cat. No. 40440, Lot. No. 1001), FGR kinase (Carna, Cat. No. 08-166, Lot. No. 05CBS-2781), YES kinase (Carna, Cat. No. 08-175, Lot. No. 06CBS-3247) were diluted to the optimum concentration with the following buffer solution: 50 mM HEPES, pH 7.5, 0.0015% Brij-35, 10 mM MgCl2, 2 mM DTT. Transfer to the 96-well plate and incubate with the compound at 28° C. for a period of time.
as §2, §3

[4] = biological target: T4, FGR kinase (Homo sapiens, UniProt P09769); assay: IC50 evaluation assay of Src family kinase inhibition: FGR; settings: 28° C.; average of two tests; read-out: IC50 (nM) inhibiting Src family kinase FGR
T4 construct: purchased Carna 08-166
Protocol: as §1, §4, §2, §3

[5] = biological target: T5, YES kinase (Homo sapiens, UniProt P07947); assay: IC50 evaluation assay of Src family kinase inhibition: YES; settings: 28° C.; average of two tests; read-out: IC50 (nM) inhibiting Src family kinase YES
T5 construct: purchased Carna 08-175
Protocol: as §1, §4, §2, §3

T5 sequence (P07947 whole entry): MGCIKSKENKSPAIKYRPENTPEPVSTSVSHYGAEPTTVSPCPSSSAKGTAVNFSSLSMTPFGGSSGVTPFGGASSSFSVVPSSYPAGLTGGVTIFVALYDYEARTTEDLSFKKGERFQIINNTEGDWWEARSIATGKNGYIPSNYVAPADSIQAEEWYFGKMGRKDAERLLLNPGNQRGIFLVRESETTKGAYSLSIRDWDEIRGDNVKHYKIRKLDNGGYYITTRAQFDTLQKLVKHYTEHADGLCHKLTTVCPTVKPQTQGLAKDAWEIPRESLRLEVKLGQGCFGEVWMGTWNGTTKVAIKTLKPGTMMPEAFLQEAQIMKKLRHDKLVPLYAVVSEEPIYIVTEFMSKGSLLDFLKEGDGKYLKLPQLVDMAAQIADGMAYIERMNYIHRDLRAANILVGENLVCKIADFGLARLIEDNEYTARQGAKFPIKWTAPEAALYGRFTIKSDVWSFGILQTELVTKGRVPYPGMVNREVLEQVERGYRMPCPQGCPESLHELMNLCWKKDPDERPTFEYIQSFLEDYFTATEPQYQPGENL
T3 sequence (P12931 whole entry): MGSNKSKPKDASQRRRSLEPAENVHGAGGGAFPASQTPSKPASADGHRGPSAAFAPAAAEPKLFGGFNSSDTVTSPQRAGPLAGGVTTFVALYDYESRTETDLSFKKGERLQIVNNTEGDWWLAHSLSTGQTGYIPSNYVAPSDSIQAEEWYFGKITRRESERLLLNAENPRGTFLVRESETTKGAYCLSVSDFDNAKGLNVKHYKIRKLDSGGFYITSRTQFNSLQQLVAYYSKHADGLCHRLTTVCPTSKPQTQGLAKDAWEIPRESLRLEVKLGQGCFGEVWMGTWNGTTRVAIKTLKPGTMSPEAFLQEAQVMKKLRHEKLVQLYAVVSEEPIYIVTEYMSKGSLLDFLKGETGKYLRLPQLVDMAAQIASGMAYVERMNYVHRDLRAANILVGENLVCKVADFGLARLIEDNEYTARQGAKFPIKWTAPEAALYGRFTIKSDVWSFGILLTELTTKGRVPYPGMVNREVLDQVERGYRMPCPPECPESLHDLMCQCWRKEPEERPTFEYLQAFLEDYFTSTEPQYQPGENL
T4 sequence (P09769 whole entry): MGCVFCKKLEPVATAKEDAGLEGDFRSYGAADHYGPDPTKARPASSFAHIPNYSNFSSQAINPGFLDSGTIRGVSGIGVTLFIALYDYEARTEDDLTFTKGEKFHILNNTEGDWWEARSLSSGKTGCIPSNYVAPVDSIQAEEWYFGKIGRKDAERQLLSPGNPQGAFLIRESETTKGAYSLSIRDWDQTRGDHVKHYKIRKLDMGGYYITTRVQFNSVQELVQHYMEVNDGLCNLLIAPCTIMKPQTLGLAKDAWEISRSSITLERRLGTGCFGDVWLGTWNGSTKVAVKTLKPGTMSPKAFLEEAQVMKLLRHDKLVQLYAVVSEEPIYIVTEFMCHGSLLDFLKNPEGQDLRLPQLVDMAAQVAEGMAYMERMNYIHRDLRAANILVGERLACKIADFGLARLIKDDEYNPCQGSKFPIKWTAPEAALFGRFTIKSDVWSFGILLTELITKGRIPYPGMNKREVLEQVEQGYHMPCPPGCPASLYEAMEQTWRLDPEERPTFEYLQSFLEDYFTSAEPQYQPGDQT
T2 sequence (P22607 23-806): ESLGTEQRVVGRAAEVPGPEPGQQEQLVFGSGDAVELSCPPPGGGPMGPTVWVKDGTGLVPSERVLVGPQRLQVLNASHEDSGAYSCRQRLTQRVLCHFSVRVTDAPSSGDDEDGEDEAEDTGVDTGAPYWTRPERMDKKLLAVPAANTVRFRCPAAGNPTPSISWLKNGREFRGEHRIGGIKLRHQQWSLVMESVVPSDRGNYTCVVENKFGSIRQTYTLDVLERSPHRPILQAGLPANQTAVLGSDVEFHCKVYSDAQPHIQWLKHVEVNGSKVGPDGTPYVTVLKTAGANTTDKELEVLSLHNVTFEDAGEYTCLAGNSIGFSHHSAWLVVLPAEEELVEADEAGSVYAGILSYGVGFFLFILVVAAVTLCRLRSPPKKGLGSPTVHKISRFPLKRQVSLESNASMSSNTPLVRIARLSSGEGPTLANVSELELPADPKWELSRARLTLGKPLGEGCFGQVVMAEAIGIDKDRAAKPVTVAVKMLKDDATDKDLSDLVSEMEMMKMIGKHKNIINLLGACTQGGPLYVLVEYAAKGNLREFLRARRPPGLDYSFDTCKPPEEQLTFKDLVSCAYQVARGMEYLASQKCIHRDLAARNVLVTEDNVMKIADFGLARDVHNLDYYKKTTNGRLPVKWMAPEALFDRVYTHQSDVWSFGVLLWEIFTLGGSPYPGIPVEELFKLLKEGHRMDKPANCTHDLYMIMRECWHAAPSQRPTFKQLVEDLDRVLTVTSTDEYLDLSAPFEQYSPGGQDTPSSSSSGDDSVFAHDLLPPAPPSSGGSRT

Compound | IC50 [1] | IC50 [2] | IC50 [3] | IC50 [4] | IC50 [5]
COc1cc(F)ccc1-c1c(C)sc2cnc(Nc3cnn(C4CCNCC4)c3)nc12 [Compound 31, N-[7-(4-fluoro-2-methoxyphenyl)-6-methylthieno[3,2-d]pyrimidinyl-2-yl]-1-(piperidinyl-4-yl)-1H-pyrazol-4-amine] | 0.34 nM | 16 nM | 6 nM | 14 nM | 5.8 nM
COc1cc(F)ccc1-c1c(C)sc2cnc(Nc3cnn(C4CCN(CCO)CC4)c3)nc12 [Compound 34, 2-[4-(4-{[7-(4-fluoro-2-methoxyphenyl)-6-methylthieno[3,2-d]pyrimidinyl-2-yl]amino}-1H-pyrazol-1-yl)-piperidinyl-1-yl]-1-ethanol] | 0.33 nM | 15 nM | 6.3 nM | 11 nM | 6.8 nM
